# In patent publication US7960140B2, “Avidin mutants” (Orion Diagnostica Oy, priority 2003, dated 2011):
# Read-outs that look alike come from different tables or passages of the source.
# Tests used:
# [1] = Dissociation assay with fluorescent biotin conjugate (ArcDia BF560); format: binding
# Protocol: The biotin-binding properties of produced mutagenised dcAvds were analysed by method based on the quenching of biotin-coupled fluorescent probe ArcDia BF560 (ArcDia Ltd., Turku, Finland) due to binding to avidin (FIG. 4). PerkinElmer LS55 luminometer was used for measurements. […] The spectra of 50 nM biotin-Bf560 solution in 50 mM Na-phosphate containing 650 mM NaCl was measured (red). Chicken avidin (Belovo S. A., Bastogne, Belgium) was added to final subunit concentration of 83 nM and green spectra was obtained.
# Briefly, 50 nM free biotin-Bf560 solution in 50 mM Na-phosphate containing 650 mM NaCl was measured using excitation at 560 nm (2.5 nm slit) and emission was collected at 578 nm (5 nm slit). Continuous stirring (setting low) was used throughout the analysis. After 100 sec measurement, the protein under study was added to final biotin-binding subunit concentration 50 nM and the measurement was continued for 500 sec. […]
# A one-phase dissociation model was used to analyse the data, as described elsewhere (Hytönen et al., (2004) Biochem J, in press). The dissociation rate constant (kdiss) was determined by fitting the equation −kdisst=ln(B/Bo) to the data. Bo is the measured maximum binding (100%) determined as the difference between the fluorescence of the free dye and the fluorescence of the protein-dye complex, and B is the amount of complex measured as a function of time. The first 500 seconds were omitted from the data to abolish the effect of the fast initial phase characteristic of avidin-BF560-biotin interaction (FIG. 9). The fraction of fluorescent biotin released after one-hour was determined, as well as the times of half-maximal (t½) and quarter-maximal (t¼) release. For dual chain avidins with modified binding sites, it was hypothesized that 50% of the binding sites would behave like those of wt avidin (cpAvd5S4 binding site of dcAvd was not modified). The dissociation data measured for wt avidin divided by two was subtracted from the data measured for the modified dual chain avidins and the dissociation curve was fitted to the difference as above.
# [2] = Reversibility of biotin binding on biotinylated IAsys cuvette surface; conditions: reversibility from biotin surface; biotin 423 μg/ml, one hour
# Protocol: The reversibility of biotin binding was also measured using IAsys apparatus. In the reversibility assay, the sample proteins were allowed to bind to the biotinylated cuvette surface in PBS containing 1 M NaCl. After the equilibrium was reached, the cuvette was filled with PBS, 1 M NaCl containing biotin (423 μg/ml) and the dissociation of the proteins was monitored for one hour.
# [3] = IAsys optical biosensor binding to immobilised 2-iminobiotin; conditions: for Kd: 2-iminobiotin
# Protocol: Reversibility of biotin binding and affinity towards 2-iminobiotin were determined with an IAsys optical biosensor (Affinity Sensors, Cambridge, UK) (Table 1.) as described in detail by Marttila et. al. (Marttila, A. T. et al. FEBS Lett 441, 313-7 (1998)). Briefly, The 2-iminobiotin ligand was immobilized onto the carboxymethyldextran surface of a cuvette using N-hydroxysuccinimide activation. Binding of various concentrations of avidin or avidin mutants onto 2-iminobiotinylated surface was measured in a 50 mM borate buffer (pH 9.5) containing 1 M NaCl at 20° C. The 2-iminobiotin cuvettes were regenerated with 20 mM HCl. The kinetic rate constants for association (kass) and dissociation (kdiss) were calculated using the Fast Fit program package (Affinity Sensors). The obtained rate constants were used to calculate Kd(rel) according to Kd=kdiss/kass. Equilibrium data obtained from measurements with different protein concentrations were used to calculate the dissociation constant Kd(eq).
# [4] = SDS-PAGE-based thermal stability assay; format: physicochemical
# Protocol: Thermal stability of the mutants was studied by using a SDS-PAGE-based method essentially as described in detail by Bayer et al. (Bayer, E. A. et al. Electrophoresis 17, 1319-1324 (1996)). Briefly, the protein sample in the absence or presence of biotin was diluted to a final concentration of 0.2 mg/mil in 50 mM Na-carbonate buffer, and the proteins were acetylated by adding acetyl NHS ester. Equal amount of SDS-PAGE sample buffer was added to each sample and the protein was incubated at different temperatures (between 25-100° C.) for 20 minutes. After that the samples were subjected to SDS-PAGE analysis and the gel was finally stained with Coomassie brilliant blue. Dissociation of the proteins into their subunits was observed from the gels and the transition temperatures, wherein half of the protein was (pseudo-)tetrameric and half monomeric were determined.
# [5] = Heat-induced unfolding by DSC; format: physicochemical
# [6] = Microplate temperature stability assay; format: physicochemical
# Protocol: FIG. 13. Temperature sensitivity determined by microplate assay. The avidin, dcAvd and scAvd sample is treated with the indicated temperature for certain time and the ability to bind biotinylated alkaline phosphatase was determined by coating the microplate with the sample.
# The stability of the protein was studied by microplate assay as described in the article by Nordlund et al., (2003) J Biol Chem 278, 2479-83. In this assay, 50 mM Na—PO4 buffer containing 100 mM NaCl was used and the protein was heated to 80° C. or 90° C. for certain time. After that, the capacity to bind fluorescent biotin was measured as described in the article by Nordlund et al., (2003) J Biol Chem 278, 2479-83.
# [7] = Free biotin-binding sites by quenching of intrinsic fluorescence on biotin titration; conditions: for Number of free biotin-binding sites per quaternary unit: protein 500±15 nM, titrated with biotin
# Protocol: The number of free binding sites was determined based on the quenching of the intrinsic fluorescence of avidin due to binding of biotin (Laitinen et al., (2003) J. Biol. Chem. 278, 4010-4014). The protein sample under study diluted to 2 ml volume in 50 mM NaPO4 pH 7.0+650 mM NaCl was titrated with 1 μl additions of 70 μM biotin solution in the same buffer. The protein concentration in this assay was 500±15 nM, and the concentration was determined by comparing the emission intensity averaged over 340-350 nm (excitation at 280 nm) to avidin standard sample. The protein sample was continuously mixed by magnetic stirrer.
# Intensity from each biotin concentration was averaged over eight second measurement. The end-point of the quenching was determined by fitting a line to obtained data and determining the total quenching by averaging the last three measured intensities (FIG. 12, Table 6).
# [8] = 2-iminobiotin surface, 50 mM borate pH 9.5, 1 M NaCl, 20° C.
substance,measurement,setting,value
"Avidin: wild-type chicken avidin, homotetramer (SEQ ID NO:1) [reference compound]",Release 1 h,"[1]; 23 ± 1° C., 100-fold molar excess of free biotin",14.1%
same,kdiss,"[1]; 23 ± 1° C., one-phase dissociation model",2.3e-05 s⁻¹
same,Dissociation of fluorescent biotin Release 1 h,[1]; 25° C.,14.1%
same,Dissociation of fluorescent biotin kdiss,[1]; 25° C.,2.3e-05 s⁻¹
same,Dissociation of fluorescent biotin Release 1 h,[1]; 50° C.,71.5%
same,Dissociation of fluorescent biotin kdiss,[1]; 50° C.,0.00024 s⁻¹
same,reversibility,[2],9%
same,kass,[3]; [8],(5.5 ± 0.5) × 10^5 M^−1s^−1
same,kdiss,[3]; [8],(1.9 ± 1.4) × 10^−3 s^−1
same,Kd,"[3]; calculated from the rate constants (kdiss/kass), read-out: Kd(rel)",34 nM
same,Kd,"[3]; determined experimentally from the binding curves, read-out: Kd(eq)",22 nM
same,Tr,"[4]; Table 2, absence of biotin, half of tetramer/pseudo-tetramer broken into monomers",60 °C
same,Tr + btn,"[4]; Table 2, presence of biotin",95 °C
same,SDS-PAGE stability assay Tr (−)biotin,"[4]; Table 5, transition midpoint of oligomeric disassembly, without biotin",60 °C
same,SDS-PAGE stability assay Tr (+)biotin,"[4]; Table 5, with biotin",95 °C
same,ΔTm,[5]; change in Tm upon addition of a three-fold molar excess of biotin,33.5 °C
same,DSC Tm (+)biotin,[5]; three-fold molar excess of biotin,117.0 ± 0.7 °C
same,DSC Tm (−)biotin,[5]; without biotin,83.5 ± 0.1 °C
same,activity after 32 min treatment,"[6]; 80° C., 32 min",82%
same,activity present after 32 min treatment,"[6]; 90° C., 32 min",over 50%
same,heat inactivation,[6]; 100° C.,significantly slower response to the heat treatment
same,quenching measured for whole emission spectrum (290-500 nm) due to biotin binding,[7]; 290-500 nm,44.9%
same,Fluorescence quenching (350 nm),"[7]; intrinsic fluorescence, emission 350 nm, due to binding of biotin",47.7%
same,Number of free biotin-binding sites per quaternary unit,[7],3.34
same,Number of free biotin-binding sites per quaternary unit,[7]; listed as avidin,3.3
